Source: PubChem BioAssay AID330 (DTP/NCI, 2004)
“And” between values parts separate entries of the source, which are not always exact repeats. Equal entries are not always repeated. Inconclusive results and toxic doses are left out.

Test system: P388 leukemia ip, CD2F1 mice, survival T/C
Assay: NCI In Vivo Anticancer Drug Screen. Data for tumor model P388 Leukemia (intraperitoneal) in CD2F1 (CDF1) mice
Settings: endpoint: median survival time, higher = longer survival
Outline: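 Mice carrying the transplanted tumor received test compound or vehicle. Survival was recorded in each group, and the value is the treated-group measurement divided by that of the vehicle-treated control group.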

[1] = dose: 60.0 mg/kg/injection, schedule: Q01DX005 (ip), vehicle: saline with Tween-80
[2] = dose: 120.0 mg/kg/injection, schedule: Q01DX005 (ip), vehicle: saline with Tween-80
[3] = dose: 240.0 mg/kg/injection, schedule: Q01DX005 (ip), vehicle: saline with Tween-80
[4] = dose: 12.5 mg/kg/injection, schedule: Q01DX005 (ip), vehicle: Klucel (hydroxypropylcellulose) (HPC)
[5] = dose: 25.0 mg/kg/injection, schedule: Q01DX005 (ip), vehicle: Klucel (hydroxypropylcellulose) (HPC)
[6] = dose: 50.0 mg/kg/injection, schedule: Q01DX005 (ip), vehicle: Klucel (hydroxypropylcellulose) (HPC)
[7] = dose: 100.0 mg/kg/injection, schedule: Q01DX005 (ip), vehicle: saline with Tween-80
[8] = dose: 200.0 mg/kg/injection, schedule: Q01DX005 (ip), vehicle: saline with Tween-80
[9] = dose: 12.5 mg/kg/injection, schedule: Q01DX009 (ip), vehicle: saline with Tween-80
[10] = dose: 25.0 mg/kg/injection, schedule: Q01DX009 (ip), vehicle: saline with Tween-80
[11] = dose: 50.0 mg/kg/injection, schedule: Q01DX009 (ip), vehicle: saline with Tween-80
[12] = dose: 50.0 mg/kg/injection, schedule: Q01DX005 (ip), vehicle: saline with Tween-80
[13] = dose: 100.0 mg/kg/injection, schedule: Q01DX005 (ip), vehicle: Klucel (hydroxypropylcellulose) (HPC)
[14] = dose: 200.0 mg/kg/injection, schedule: Q01DX005 (ip), vehicle: Klucel (hydroxypropylcellulose) (HPC)
[15] = dose: 6.25 mg/kg/injection, schedule: Q01DX005 (ip), vehicle: Klucel (hydroxypropylcellulose) (HPC)
[16] = dose: 6.25 mg/kg/injection, schedule: Q01DX009 (ip), vehicle: saline with Tween-80
[17] = dose: 100.0 mg/kg/injection, schedule: Q01DX009 (ip), vehicle: saline with Tween-80
[18] = dose: 100.0 mg/kg/injection, schedule: Q04DX002 (ip), vehicle: saline with Tween-80
[19] = dose: 200.0 mg/kg/injection, schedule: Q04DX002 (ip), vehicle: saline with Tween-80

SMILES: O=C1OC2C(COC(=O)c3cc(O)c(O)c(O)c3)OC(OC(=O)c3cc(O)c(O)c(O)c3)C(OC(=O)c3cc(O)c(O)c4c3C3C1=CC(=O)[C@](O)(O4)C3(O)O)C2OC(=O)c1cc(O)c(O)c(O)c1 (stereo not given in full)
- T/C (dose: 6.25 mg/kg/injection, schedule: Q01DX009 (ip), vehicle: saline): 98 % of control
- T/C (dose: 12.5 mg/kg/injection, schedule: Q01DX009 (ip), vehicle: saline): 99 % of control
- T/C (dose: 25.0 mg/kg/injection, schedule: Q01DX009 (ip), vehicle: saline): 98 % of control

SMILES: COC(=O)CC1(C(=O)OC)c2ccc3ccccc3c2N2CCCC21 (stereo not given)
- T/C (dose: 100.0 mg/kg/injection, schedule: Q01DX001 (ip), vehicle: saline): 102 % of control
- T/C (dose: 200.0 mg/kg/injection, schedule: Q01DX001 (ip), vehicle: saline): 100 % of control
- T/C (dose: 400.0 mg/kg/injection, schedule: Q01DX001 (ip), vehicle: saline): 100 % of control

SMILES: CCOC(=O)CC(SCP(=O)(OCC)OCC)C(=O)OCC (stereo not given)
- T/C [1]: 101 % of control
- T/C [2]: 95 % of control
- T/C [3]: 93 % of control

SMILES: c1csc(CSc2ncnc3nc[nH]c23)c1
- T/C (dose: 100.0 mg/kg/injection, schedule: Q04DX003 (ip), vehicle: saline with Tween-80): 100 % of control
- T/C (dose: 200.0 mg/kg/injection, schedule: Q04DX003 (ip), vehicle: saline with Tween-80): 100 % of control
- T/C (dose: 264.0 mg/kg/injection, schedule: Q04DX003 (ip), vehicle: saline with Tween-80): 100 % of control
- T/C (dose: 400.0 mg/kg/injection, schedule: Q04DX003 (ip), vehicle: saline with Tween-80): 109 % of control

SMILES: C(=C\c1cc2ccc(C3=NCCN3)cc2[nH]1)/c1ccc2cc(C3=NCCN3)[nH]c2c1
- T/C [4]: 105 % of control
- T/C [5]: 110 % of control
- T/C [6]: 108 % of control and 110 % of control

SMILES: O=NNc1ccc2cccnc2n1
- T/C (dose: 3.12 mg/kg/injection, schedule: Q01DX009 (ip), vehicle: water): 99 % of control and 115 % of control
- T/C (dose: 6.25 mg/kg/injection, schedule: Q01DX009 (ip), vehicle: water): 116 % of control and 123 % of control
- T/C (dose: 25.0 mg/kg/injection, schedule: Q01DX009 (ip), vehicle: water): 150 % of control
- T/C (dose: 50.0 mg/kg/injection, schedule: Q01DX009 (ip), vehicle: water): 187 % of control and 206 % of control

SMILES: COc1ccc2c(C)cc(N/N=C(\c3ccccc3)c3ccccn3)nc2c1
- T/C (dose: 1.56 mg/kg/injection, schedule: Q01DX005 (ip), vehicle: saline with Tween-80): 107 % of control
- T/C (dose: 3.12 mg/kg/injection, schedule: Q01DX005 (ip), vehicle: saline with Tween-80): 102 % of control
- T/C (dose: 6.25 mg/kg/injection, schedule: Q01DX005 (ip), vehicle: saline with Tween-80): 98 % of control and 94 % of control
- T/C [7]: 89 % of control
- T/C [8]: 94 % of control

SMILES: O=C(O)COc1ccc(-c2ccc(Br)cc2)cc1
- T/C [9]: 91 % of control
- T/C [10]: 97 % of control
- T/C [11]: 103 % of control

SMILES: O=c1[nH]cnc2cc3cn[nH]c3cc12
- T/C [12]: 91 % of control
- T/C [7]: 96 % of control
- T/C [8]: 95 % of control

SMILES: Cc1ccc(S(=O)(=O)N(N)CCC#N)cc1
- T/C [6]: 94 % of control
- T/C [13]: 97 % of control
- T/C [14]: 96 % of control

SMILES: NC(N)=Nc1ccc(-c2cc3cc(N=C(N)N)ccc3s2)cc1
- T/C [15]: 108 % of control
- T/C [4]: 105 % of control
- T/C [5]: 115 % of control
- T/C [6]: 168 % of control

SMILES: COC(=O)c1cc(=O)nc(NNC(C)=O)s1
- T/C [6]: 103 % of control
- T/C [13]: 96 % of control
- T/C [14]: 106 % of control

SMILES: O=C1C(=O)c2ccccc2C(O)=C1Sc1ccc2ccccc2c1
- T/C (dose: 3.13 mg/kg/injection, schedule: Q01DX009 (ip), vehicle: saline with Tween-80): 100 % of control
- T/C [16]: 99 % of control
- T/C [9]: 95 % of control

SMILES: O=S(=O)(Cl)C(Cl)(Cl)Cl
- T/C (dose: 25.0 mg/kg/injection, schedule: Q01DX009 (ip), vehicle: saline sonified): 95 % of control
- T/C (dose: 50.0 mg/kg/injection, schedule: Q01DX009 (ip), vehicle: saline sonified): 100 % of control
- T/C (dose: 100.0 mg/kg/injection, schedule: Q01DX009 (ip), vehicle: saline sonified): 86 % of control

SMILES: O=C1CN2CCN3CC(=O)NC(=O)[C@H]3[C@@H]2C(=O)N1
- T/C [1]: 96 % of control
- T/C [2]: 96 % of control
- T/C [3]: 98 % of control

SMILES: N#CC(C#N)=NNc1ccc2cn[nH]c2c1
- T/C [4]: 101 % of control
- T/C [5]: 105 % of control and 107 % of control
- T/C [6]: 116 % of control and 119 % of control and 120 % of control

SMILES: Cc1nc2c(cnn2C)c(=O)n1C
- T/C [6]: 111 % of control
- T/C [13]: 111 % of control
- T/C [14]: 111 % of control

SMILES: CN(N=O)C(=O)NCCNC(=O)C1OC(n2ccc(=O)[nH]c2=O)C(O)C1O (stereo not given)
- T/C (dose: 100.0 mg/kg/injection, schedule: Q01DX009 (ip), vehicle: saline): 108 % of control

SMILES: Cc1nc2c(N)nn(C)c2nc1C
- T/C [11]: 105 % of control
- T/C [17]: 110 % of control
- T/C (dose: 200.0 mg/kg/injection, schedule: Q01DX009 (ip), vehicle: saline with Tween-80): 110 % of control

SMILES: Cc1cc[n+](C2=C(Nc3c(C)cccc3C)C(=O)c3ccccc3C2=O)cc1
- T/C [1]: 102 % of control
- T/C [2]: 102 % of control
- T/C [3]: 114 % of control

SMILES: CCOP(=O)(OCC)Oc1cnn(C)c(=O)c1SCC
- T/C (dose: 0.78 mg/kg/injection, schedule: Q01DX005 (ip), vehicle: saline): 98 % of control

SMILES: O=C(O)c1oc2ccccc2c1C=C(c1ccccc1)c1ccccc1
- T/C [11]: 101 % of control
- T/C [17]: 101 % of control

SMILES: S=C1CCNCC1
- T/C (dose: 3.13 mg/kg/injection, schedule: Q04DX003 (ip), vehicle: saline): 100 % of control
- T/C (dose: 6.25 mg/kg/injection, schedule: Q04DX003 (ip), vehicle: saline): 104 % of control
- T/C (dose: 12.5 mg/kg/injection, schedule: Q04DX003 (ip), vehicle: saline): 100 % of control
- T/C (dose: 25.0 mg/kg/injection, schedule: Q04DX003 (ip), vehicle: saline): 100 % of control
- T/C (dose: 50.0 mg/kg/injection, schedule: Q04DX003 (ip), vehicle: saline): 90 % of control

SMILES: COC(=O)Nc1cn2ccc(Sc3ccccc3)cc2n1
- T/C (dose: 50.0 mg/kg/injection, schedule: Q01DX009 (ip), vehicle: Klucel (hydroxypropylcellulose) (HPC)): 103 % of control and 109 % of control
- T/C (dose: 100.0 mg/kg/injection, schedule: Q01DX009 (ip), vehicle: Klucel (hydroxypropylcellulose) (HPC)): 105 % of control and 122 % of control

SMILES: Cc1cc(Cl)n[nH]1
- T/C [16]: 108 % of control
- T/C (dose: 12.0 mg/kg/injection, schedule: Q01DX009 (ip), vehicle: saline with Tween-80): 108 % of control
- T/C [10]: 106 % of control

SMILES: COc1cc(NCCCCCCNC(C)C)c2ncccc2c1OC
- T/C (dose: 1.56 mg/kg/injection, schedule: Q01DX005 (ip), vehicle: Klucel (hydroxypropylcellulose) (HPC)): 99 % of control
- T/C (dose: 3.12 mg/kg/injection, schedule: Q01DX005 (ip), vehicle: Klucel (hydroxypropylcellulose) (HPC)): 105 % of control
- T/C [15]: 105 % of control
- T/C [4]: 105 % of control

SMILES: CC1(C)OC(C(F)(F)F)(C(F)(F)F)c2cc(C(C)(C)C)cc(C(O)(C(F)(F)F)C(F)(F)F)c2S1
- T/C (dose: 30.0 mg/kg/injection, schedule: Q01DX005 (ip), vehicle: saline with Tween-80): 120 % of control
- T/C [12]: 106 % of control
- T/C [1]: 113 % of control
- T/C [7]: 120 % of control
- T/C [2]: 112 % of control
- T/C [8]: 115 % of control

SMILES: O=C(CC(=O)c1ccccc1)C(=O)CC(=O)c1ccccc1
- T/C [18]: 103 % of control
- T/C [19]: 99 % of control
- T/C (dose: 400.0 mg/kg/injection, schedule: Q04DX002 (ip), vehicle: saline with Tween-80): 99 % of control

SMILES: Cc1noc(NC(=O)NC(=O)c2c(F)cccc2F)c1C
- T/C (dose: 50.0 mg/kg/injection, schedule: Q04DX002 (ip), vehicle: saline with Tween-80): 99 % of control
- T/C [18]: 99 % of control
- T/C [19]: 100 % of control

SMILES: CC1=C(C)[CH2][Ge]([CH3])([CH3])[CH2]1
- T/C (dose: 60.0 mg/kg/injection, schedule: Q01DX005 (ip), vehicle: saline): 98 % of control
- T/C (dose: 120.0 mg/kg/injection, schedule: Q01DX005 (ip), vehicle: saline): 104 % of control
- T/C (dose: 240.0 mg/kg/injection, schedule: Q01DX005 (ip), vehicle: saline): 97 % of control
